Structures are written as SMILES.

The assay relates to moderate traumatic brain injury (TBI) induced by controlled cortical impact (CCI). In words: Right forelimb adhesive removal test after TBI. In kind it is in vivo, male Wistar rats. The method, then: FIG. 2: The figure illustrates functional tests that are carried out on healthy (sham surgery) no treatment, vehicle treated and ALPHA-1062 treated rats to assess sensorimotor and cognitive function after TBI. Sensimotor function tests. a) The figure depicts tests to assess the modified neurological severity score (mNSS). […] The animal is required to balance over a grid and the frequency of steps missing the grid are counted. This test assesses the functionality of the injured parietal cortex of the rat's brain. c) The adhesive removal test consists of applying adhesive tape on each forepaw of the animal and measuring the time-to-contact and the time-to-remove them. This behavior requires correct paw and mouth sensitivity (time-to-contact) and correct dexterity (time-to-remove). Cognitive function tests: a) This picture illustrates the Morris water maze that comprises that a rat is placed in a large circular pool (picture on the left) and is required to find an invisible platform that allows it to escape the water by using various visuo-spatial cues. This test is used to study spatial learning and memory and assesses hippocampal and select cortical brain region function. Usually, the path of the rat through the pool is tracked (picture on the right) and the time spend in the proximity of the platform as well as the time needed until the platform is found by the rat are measured. b) For the new/novel object recognition (NOR) test, after a habituation time in the test space (picture on far left) rats are given the opportunity to explore two identical objects (A) for a predetermined period of time (picture in the middle). After a delay, the animals are then presented with two objects to explore, one of which is the same as in the first exploration trial (A), the other a new object (B) (picture on the right). Depending on the length of the delay between the two trials or depending on the extend of cortical damage, the rats will either explore the novel object for a greater time period, indicating memory for the familiar object, or will explore the novel and familiar objects for the same amount of time, indicating a lack of recall or loss of memory for the familiar object presented during the initial trial.
Young adult (2-3 months) male Wistar rats were subjected to a moderate traumatic brain injury (TBI) induced by controlled cortical impact (CCI). […]
In the adhesive removal test, an adhesive tape is applied to the right forepaw of an animal. Both the time-to-contact the adhesive (sensory perception), as well as the time-to-remove the adhesive (locomotor skill) are assessed by this test.

Take `COc1ccc2c3c1O[C@H]1C[C@@H](OC(=O)c4ccccc4)C=C[C@@]31CCN(C)C2` [ALPHA-1062, (4aS,6R,8aS)-5,6,9,10,11,12-hexahydro-3-methoxy-11-methyl-4aH-[1]benzofuro[3a,3,2-ef][2]benzazepin-6-ol benzoate]: for the setting “4.5 mg/kg IN twice daily, from day 7 (D7) on (FIG. 6)”, the “adhesive removal (right forelimb) compared to vehicle” value is “significantly better”. Also, the “adhesive removal (right forelimb) compared to uninjured (sham) animals” value (4.5 mg/kg IN twice daily, starting on day 7 (D7), remainder of study) is on record as “as well as the uninjured (sham) animals”. Also, the “Adhesive Removal, performance over SHAM” value (rats after TBI, compared to healthy sham animals) is recorded as “equivalent to”. In addition, the “Adhesive Removal, performance over VEHICLE” value (rats after TBI, compared to vehicle treatment) is listed as “superior”.
